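Exposure lasted 48 hours, with cells grown in 96-well plates and compounds tested at five concentrations. The concentration for 50% growth inhibition is given as GI50.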 Calls of active or inactive are those of the source. Cut-off read from the data, not from the text of the source: active = GI50 up to about 1.1 µM and inactive = higher.
Columns and labels:
Test in all cases: NCI-60 cell line screen, 48 h
IGROV-1 = system: IGROV-1
NCI-H226 = system: NCI-H226
UACC-257 = system: UACC-257
COLO 205 = system: COLO 205
HOP-92 = system: HOP-92
HT-29 = system: HT-29
KM12 = system: KM12
K562 = system: K562
HOP-62 = system: HOP-62
OVCAR-8 = system: OVCAR-8
SK-MEL-2 = system: SK-MEL-2
HCT-116 = system: HCT-116
SNB-75 = system: SNB-75
RPMI-8226 = system: RPMI-8226
SF-539 = system: SF-539
NCI-H460 = system: NCI-H460
SN12C = system: SN12C
NCI-H522 = system: NCI-H522
OVCAR-3 = system: OVCAR-3
NCI/ADR-RES = system: NCI/ADR-RES

| Structure (SMILES) | GI50 (IGROV-1) | GI50 (NCI-H226) | GI50 (UACC-257) | GI50 (COLO 205) | GI50 (HOP-92) | GI50 (HT-29) | GI50 (KM12) | GI50 (K562) | GI50 (HOP-62) | GI50 (OVCAR-8) | GI50 (SK-MEL-2) | GI50 (HCT-116) | GI50 (SNB-75) | GI50 (RPMI-8226) | GI50 (SF-539) | GI50 (NCI-H460) | GI50 (SN12C) | GI50 (NCI-H522) | GI50 (OVCAR-3) | GI50 (NCI/ADR-RES) |
| --- | --- | --- | --- | --- | --- | --- | --- | --- | --- | --- | --- | --- | --- | --- | --- | --- | --- | --- | --- | --- |
| N/N=C(\C(=O)Nc1c(Cl)cc([N+](=O)[O-])cc1Cl)C(c1cnc2ccc([N+](=O)[O-])cc2n1)[N+](=O)[O-] (stereo not given) | > 100 µM (inactive) | 6.71 µM (inactive) | > 100 µM (inactive) | > 100 µM (inactive) | > 100 µM (inactive) | > 100 µM (inactive) | 50.1 µM (inactive) | 46.6 µM (inactive) | > 100 µM (inactive) | > 100 µM (inactive) | > 100 µM (inactive) | > 100 µM (inactive) | 56.9 µM (inactive) | 42.8 µM (inactive) | > 100 µM (inactive) | > 100 µM (inactive) | 95.7 µM (inactive) | 9.98 µM (inactive) |  |  |
| COC(=O)C(/C(=N/NC(N)=S)C(=O)Nc1ccccc1[N+](=O)[O-])c1cnc2ccccc2n1 (stereo not given) | > 100 µM (inactive) | > 100 µM (inactive) | > 100 µM (inactive) | > 100 µM (inactive) | > 100 µM (inactive) | > 100 µM (inactive) | > 100 µM (inactive) | > 100 µM (inactive) | > 100 µM (inactive) | > 100 µM (inactive) | > 100 µM (inactive) | > 100 µM (inactive) | > 100 µM (inactive) | > 100 µM (inactive) | > 100 µM (inactive) | > 100 µM (inactive) | > 100 µM (inactive) | > 100 µM (inactive) |  |  |
| CCOC(=O)C1(C(F)(F)F)N=C(CC)OC(N2CCOCC2)=N1 (stereo not given) | > 100 µM (inactive) |  | > 100 µM (inactive) | > 100 µM (inactive) | > 100 µM (inactive) | > 100 µM (inactive) | > 100 µM (inactive) | > 100 µM (inactive) |  | > 100 µM (inactive) | > 100 µM (inactive) | > 100 µM (inactive) | > 100 µM (inactive) | > 100 µM (inactive) | > 100 µM (inactive) | > 100 µM (inactive) | > 100 µM (inactive) | > 100 µM (inactive) | > 100 µM (inactive) | > 100 µM (inactive) |
| O=C1C2C3C=C4c5ccccc5N(c5ccccc5)C4(C2C(=O)N1Cc1ccccc1)C1C(=O)N(Cc2ccccc2)C(=O)C31 (stereo not given) |  |  | > 100 µM (inactive) | > 100 µM (inactive) | 39.5 µM (inactive) | > 100 µM (inactive) | > 100 µM (inactive) | > 100 µM (inactive) | > 10 µM (inactive) | 39.4 µM (inactive) | > 100 µM (inactive) | > 100 µM (inactive) | 16.1 µM (inactive) |  | > 100 µM (inactive) | > 100 µM (inactive) | > 100 µM (inactive) |  |  |  |
| O=C(O)C(F)(F)C(F)(F)C(F)(F)C(F)(F)C(F)(F)C(F)(F)C(F)(F)C(F)(F)F | > 100 µM (inactive) | 34.2 µM (inactive) | > 100 µM (inactive) | 48.5 µM (inactive) | 24.9 µM (inactive) | 48.2 µM (inactive) | 53.1 µM (inactive) | 27.1 µM (inactive) | 52.6 µM (inactive) | 43.9 µM (inactive) |  | 41 µM (inactive) | 71.8 µM (inactive) |  | 43.2 µM (inactive) | 81.5 µM (inactive) | 50.5 µM (inactive) | 62.5 µM (inactive) | 43.8 µM (inactive) | 44.9 µM (inactive) |
| C[Si](C)(C)/C(I)=C/CO | 25.1 µM (inactive) | 20.4 µM (inactive) | 15.5 µM (inactive) | 16.3 µM (inactive) | 24 µM (inactive) | 20.5 µM (inactive) | 23 µM (inactive) | 19.4 µM (inactive) |  | 29.7 µM (inactive) | 19.7 µM (inactive) | 14.3 µM (inactive) | 53.6 µM (inactive) | 17.4 µM (inactive) | 20 µM (inactive) | 19.7 µM (inactive) | 22 µM (inactive) | 16.1 µM (inactive) | 24.7 µM (inactive) |  |
| COc1ccc(/C(Cl)=C(\C=O)c2ccc(F)cc2)cc1 | 18.9 µM (inactive) | 11.7 µM (inactive) |  | 16.6 µM (inactive) | 4.29 µM (inactive) | 7.41 µM (inactive) |  | 4.78 µM (inactive) | 9.59 µM (inactive) | 10.8 µM (inactive) | 8.83 µM (inactive) | 5.08 µM (inactive) | 2.27 µM (inactive) | 4.49 µM (inactive) | 15.5 µM (inactive) | 4.46 µM (inactive) | 9.98 µM (inactive) | 4.06 µM (inactive) | 19.1 µM (inactive) |  |
| COc1c2c(cc3c(CCc4ccccc4)cc(=O)oc13)CCC(C)(C)O2 | > 100 µM (inactive) | > 100 µM (inactive) | > 100 µM (inactive) | > 100 µM (inactive) | 2.34 µM (inactive) | > 100 µM (inactive) | > 100 µM (inactive) | > 100 µM (inactive) | > 100 µM (inactive) | > 100 µM (inactive) | > 100 µM (inactive) | > 100 µM (inactive) | > 100 µM (inactive) | > 100 µM (inactive) |  | > 100 µM (inactive) | > 100 µM (inactive) |  | > 100 µM (inactive) |  |
| CCOC(=O)C(=O)NC12CC3CC(CC(C3)C1)C2 | > 100 µM (inactive) | > 100 µM (inactive) | > 100 µM (inactive) | > 100 µM (inactive) | > 100 µM (inactive) | > 100 µM (inactive) | > 100 µM (inactive) | > 100 µM (inactive) | > 100 µM (inactive) | > 100 µM (inactive) | > 100 µM (inactive) | > 100 µM (inactive) | > 100 µM (inactive) | > 100 µM (inactive) | > 100 µM (inactive) | > 100 µM (inactive) | > 100 µM (inactive) | > 100 µM (inactive) |  |  |
| CC=C/C=C/[C@@H]1O[C@](O)([C@H](CC)C(=O)NC/C=C/C=C(\C)[C@@H](OC)[C@@H](C)[C@@H]2O[C@H](/C=C/C=C/C=C(\C)C(=O)c3c(O)cc[nH]c3=O)[C@H](O)[C@@H]2O)[C@H](O)[C@H](O)C1(C)C | > 100 µM (inactive) |  | > 100 µM (inactive) |  | > 100 µM (inactive) | > 100 µM (inactive) | 72.6 µM (inactive) | > 100 µM (inactive) | > 100 µM (inactive) | 72.3 µM (inactive) | > 100 µM (inactive) |  | > 100 µM (inactive) | 88.7 µM (inactive) | > 100 µM (inactive) | 92.7 µM (inactive) |  | > 100 µM (inactive) | > 100 µM (inactive) | > 100 µM (inactive) |
| O=S1(=O)CC#CC[C@@H](CO)[C@@H](CO)CC#CC1 | 43.1 µM (inactive) |  | 91.6 µM (inactive) |  | 31.5 µM (inactive) | > 100 µM (inactive) | > 100 µM (inactive) | 59 µM (inactive) | > 100 µM (inactive) | > 100 µM (inactive) | > 100 µM (inactive) | 61.2 µM (inactive) | 82 µM (inactive) |  | > 100 µM (inactive) | > 100 µM (inactive) | > 100 µM (inactive) | 17.9 µM (inactive) | > 100 µM (inactive) |  |
| C=CC1(c2ccccc2Cl)N/C(=C/OCC)CO1 (stereo not given) | > 100 µM (inactive) | > 100 µM (inactive) | > 100 µM (inactive) | 88.3 µM (inactive) | > 100 µM (inactive) | > 100 µM (inactive) | > 100 µM (inactive) | > 100 µM (inactive) | > 100 µM (inactive) | > 100 µM (inactive) | > 100 µM (inactive) | 90.2 µM (inactive) | 36.6 µM (inactive) | 24.7 µM (inactive) | > 100 µM (inactive) | > 100 µM (inactive) | > 100 µM (inactive) | > 100 µM (inactive) | > 100 µM (inactive) |  |
| Cc1ccc2c3c1[C@@H]1O[C@@H]1c1cccc(c1-3)[C@@H]1O[C@H]21 |  | 28.2 µM (inactive) | 15.9 µM (inactive) | 15.8 µM (inactive) | 18.1 µM (inactive) | 6.07 µM (inactive) | 12.4 µM (inactive) | 4.29 µM (inactive) | 15.7 µM (inactive) | 11.5 µM (inactive) | 16.1 µM (inactive) | 5.24 µM (inactive) | 2.38 µM (inactive) |  |  |  | 11.1 µM (inactive) | 12.2 µM (inactive) |  | 18.2 µM (inactive) |
| CC[C@H]1CN2CCc3cc(OC)c(OC)cc3[C@@H]2C[C@@H]1C[C@H]1NCCc2cc(O)c(OC)cc21 | 0.0385 µM (active) |  | 0.0731 µM (active) |  |  | 0.0319 µM (active) | 0.0296 µM (active) | 0.025 µM (active) |  | 0.025 µM (active) | 0.0319 µM (active) | 0.025 µM (active) |  | 0.146 µM (active) | 0.0308 µM (active) | 0.0282 µM (active) | 0.0361 µM (active) | 0.025 µM (active) | 0.0377 µM (active) | 0.543 µM (active) |
| COC(=O)C(Cc1ccc(N(C)C)cc1)(NC(=O)c1ccccc1)P(=O)(OC)OC (stereo not given) | > 100 µM (inactive) | > 100 µM (inactive) | > 100 µM (inactive) | > 100 µM (inactive) | > 100 µM (inactive) | > 100 µM (inactive) | > 100 µM (inactive) | > 100 µM (inactive) | > 100 µM (inactive) | > 100 µM (inactive) | > 100 µM (inactive) | > 100 µM (inactive) | > 100 µM (inactive) | > 100 µM (inactive) | > 100 µM (inactive) | > 100 µM (inactive) | > 100 µM (inactive) | > 100 µM (inactive) |  |  |

Source: ChEMBL document CHEMBL1201862, “PubChem BioAssay data set” (2004)
